Tested on: cartilage cells of individual affected unhealthy dogs
Experiment: In vitro culture of cartilage cells of affected dogs with curcumin or andrographolide, microarray
Assay type: cell-based, dog
Details: mean; for Fold change of gene expression, ACTB / Fold change of gene expression, ACTR3 / Fold change of gene expression, ADK / Fold change of gene expression, ANKRD10 / Fold change of gene expression, CAV1 / Fold change of gene expression, CDH11 / Fold change of gene expression, COL3A1 / Fold change of gene expression, COX1 / Fold change of gene expression, COX2 / Fold change of gene expression, IGFBP7 / Fold change of gene expression, IL2 / Fold change of gene expression, MMP2 / Fold change of gene expression, NOS2 / Fold change of gene expression, PTGS-2 / Fold change of gene expression, SPARC / Fold change of gene expression, STMN1 / Fold change of gene expression, TIMP1 / Fold change of gene expression, TIMP2 / Fold change of gene expression, TNF-a / Fold change of gene expression, TUBA / Fold change of gene expression, TUBB: 60 mg/l vs 0, 6 hours, cartilage cells of affected dogs; for Fold change of gene expression, ACTB / Net effect of the NBC on fold change, ACTB: gene ACTB; for Net effect of the NBC on fold change, ACTB / Net effect of the NBC on fold change, ACTR3 / Net effect of the NBC on fold change, ADK / Net effect of the NBC on fold change, ANKRD10 / Net effect of the NBC on fold change, CAV1 / Net effect of the NBC on fold change, CDH11 / Net effect of the NBC on fold change, COL3A1 / Net effect of the NBC on fold change, COX1 / Net effect of the NBC on fold change, COX2 / Net effect of the NBC on fold change, IGFBP7 / Net effect of the NBC on fold change, IL2 / Net effect of the NBC on fold change, MMP2 / Net effect of the NBC on fold change, NOS2 / Net effect of the NBC on fold change, PTGS-2 / Net effect of the NBC on fold change, SPARC / Net effect of the NBC on fold change, STMN1 / Net effect of the NBC on fold change, TIMP1 / Net effect of the NBC on fold change, TIMP2 / Net effect of the NBC on fold change, TNF-a / Net effect of the NBC on fold change, TUBA / Net effect of the NBC on fold change, TUBB: 60 mg/l, 6 hours; for Fold change of gene expression, ACTR3 / Net effect of the NBC on fold change, ACTR3: gene ACTR3; for Fold change of gene expression, ADK / Net effect of the NBC on fold change, ADK: gene ADK; for Fold change of gene expression, ANKRD10 / Net effect of the NBC on fold change, ANKRD10: gene ANKRD10; for Fold change of gene expression, CAV1 / Net effect of the NBC on fold change, CAV1: gene CAV1; for Fold change of gene expression, CDH11 / Net effect of the NBC on fold change, CDH11: gene CDH11; for Fold change of gene expression, COL3A1 / Net effect of the NBC on fold change, COL3A1: gene COL3A1; for Fold change of gene expression, COX1 / Net effect of the NBC on fold change, COX1: gene COX1; for Fold change of gene expression, COX2 / Net effect of the NBC on fold change, COX2: gene COX2; for Fold change of gene expression, IGFBP7 / Net effect of the NBC on fold change, IGFBP7: gene IGFBP7; for Fold change of gene expression, IL2 / Net effect of the NBC on fold change, IL2: gene IL2; for Fold change of gene expression, MMP2 / Net effect of the NBC on fold change, MMP2: gene MMP2; for Fold change of gene expression, NOS2 / Net effect of the NBC on fold change, NOS2: gene NOS2; for Fold change of gene expression, PTGS-2 / Net effect of the NBC on fold change, PTGS-2: gene PTGS-2; for Fold change of gene expression, SPARC / Net effect of the NBC on fold change, SPARC: gene SPARC; for Fold change of gene expression, STMN1 / Net effect of the NBC on fold change, STMN1: gene STMN1; for Fold change of gene expression, TIMP1 / Net effect of the NBC on fold change, TIMP1: gene TIMP1; for Fold change of gene expression, TIMP2 / Net effect of the NBC on fold change, TIMP2: gene TIMP2; for Fold change of gene expression, TNF-a / Net effect of the NBC on fold change, TNF-a: gene TNF-a; for Fold change of gene expression, TUBA / Net effect of the NBC on fold change, TUBA: gene TUBA; for Fold change of gene expression, TUBB / Net effect of the NBC on fold change, TUBB: gene TUBB
Protocol: Total RNA of cells was extracted using phenol/guanidine HCl reagents (Trizol, Invitrogen). RNA quality integrity was analysed using the Agilent 2100 Bioanalyser (Agilent Technologies) of the sample. The samples determined to have no, or minimal, loss of integrity and thus were considered suitable for use in experiments. mRNA was amplified for each sample, starting with 500 ng total RNA using a commercially available kit (Ambion T7 MEGAscript high yield transcription kit, Ambion). The mRNA was quantified using a spectrophotometer. mRNA was directly reverse transcribed to cDNA from 25 μg of total RNA using the Superscript indirect cDNA labeling Core kit (Invitrogen, Milan, Italy).
Two micrograms of cDNA were labelled with Cyanine-3dCTP (Cy3) or Cyanine-5dCTP (Cy5) fluorochromes using the cDNA labeling purification module kit (Invitrogen, Milan, Italy). Samples were hybridised to a canine specific, whole genome 44k spot 60mer oligonucleotide (Agilent Technologies). The labelled cDNA was appropriately coupled and used for competitive hybridization on the same microarray at 42° C. for 16 h. Fluorescence incorporation was determined using a spectrophotometer. The relative intensity of labelled cDNA in was acquired with ScanArray LITE scanner (PerkinElmer Life Sciences, Inc).
Expression data were then exported into Excel 2007 and processed with SAM software; comparison between groups was achieved using paired student's t tests. […] Correction for multiple hypothesis testing was performed using the false discovery rate (FDR).
Searching within the nutrient data set for biologically active nutrients with anti-arthritic and anti-inflammatory properties identified curcumin and androgropholide as the appropriated compositions. The cartilage cells of individual affected unhealthy dogs were cultured in vitro with 0, or 60 mg/l of curcumin or androgropholide for 6 hours. At the end of the incubation, these cartilage cells from individual affected dogs were washed and used for RNA extraction. For the microarray analysis, co-hybridisation of the RNA from 0 and 60 mg/l was conducted, using the material and the methods described previously.

Structure (SMILES): C=C1CC[C@@H]2[C@](C)(CO)[C@H](O)CC[C@@]2(C)[C@@H]1C/C=C1/C(=O)OC[C@H]1O [Androgrpholide]
- Fold change of gene expression, ACTB: −1.0
- Net effect of the NBC on fold change, ACTB: 2.8
- Fold change of gene expression, ACTR3: 1.0
- Net effect of the NBC on fold change, ACTR3: 1.3
- Fold change of gene expression, ADK: 0.0
- Net effect of the NBC on fold change, ADK: 3.6
- Fold change of gene expression, ANKRD10: 0.0
- Net effect of the NBC on fold change, ANKRD10: 5.2
- Fold change of gene expression, CAV1: 0.0
- Net effect of the NBC on fold change, CAV1: 4.8
- Fold change of gene expression, CDH11: −1.0
- Net effect of the NBC on fold change, CDH11: 5.9
- Fold change of gene expression, COL3A1: −2.0
- Net effect of the NBC on fold change, COL3A1: 7.5
- Fold change of gene expression, COX1: 0.0
- Net effect of the NBC on fold change, COX1: 0.8
- Fold change of gene expression, COX2: 0.0
- Net effect of the NBC on fold change, COX2: 23.0
- Fold change of gene expression, IGFBP7: −2.0
- Net effect of the NBC on fold change, IGFBP7: 1.7
- Fold change of gene expression, IL2: −6.0
- Net effect of the NBC on fold change, IL2: −3.0
- Fold change of gene expression, MMP2: −5.0
- Net effect of the NBC on fold change, MMP2: 5.0
- Fold change of gene expression, NOS2: −6.0
- Net effect of the NBC on fold change, NOS2: −5.8
- Fold change of gene expression, PTGS-2: −5.0
- Net effect of the NBC on fold change, PTGS-2: −3.8
- Fold change of gene expression, SPARC: 0.0
- Net effect of the NBC on fold change, SPARC: 6.3
- Fold change of gene expression, STMN1: 0.0
- Net effect of the NBC on fold change, STMN1: 6.2
- Fold change of gene expression, TIMP1: 0.0
- Net effect of the NBC on fold change, TIMP1: 6.2
- Fold change of gene expression, TIMP2: 0.0
- Net effect of the NBC on fold change, TIMP2: 2.0
- Fold change of gene expression, TNF-a: −8.0
- Net effect of the NBC on fold change, TNF-a: 2.0
- Fold change of gene expression, TUBA: 0.0
- Net effect of the NBC on fold change, TUBA: 4.7
- Fold change of gene expression, TUBB: 0.0
- Net effect of the NBC on fold change, TUBB: 4.8

Structure (SMILES): COc1cc(/C=C/C(=O)CC(=O)/C=C/c2ccc(O)c(OC)c2)ccc1O [curcumin]
- Fold change of gene expression, ACTB: −5.0
- Net effect of the NBC on fold change, ACTB: −1.2
- Fold change of gene expression, ACTR3: −1.0
- Net effect of the NBC on fold change, ACTR3: −4.0
- Fold change of gene expression, ADK: −4.3
- Net effect of the NBC on fold change, ADK: −1.4
- Fold change of gene expression, ANKRD10: −7.0
- Net effect of the NBC on fold change, ANKRD10: −1.8
- Fold change of gene expression, CAV1: −3.0
- Net effect of the NBC on fold change, CAV1: 1.8
- Fold change of gene expression, CDH11: −6.0
- Net effect of the NBC on fold change, CDH11: 0.9
- Fold change of gene expression, COL3A1: −6.0
- Net effect of the NBC on fold change, COL3A1: 3.5
- Fold change of gene expression, COX1: −1.0
- Net effect of the NBC on fold change, COX1: −0.2
- Fold change of gene expression, COX2: −15.0
- Net effect of the NBC on fold change, COX2: 8.0
- Fold change of gene expression, IGFBP7: −1.5
- Net effect of the NBC on fold change, IGFBP7: 2.2
- Fold change of gene expression, IL2: −4.0
- Net effect of the NBC on fold change, IL2: −1.0
- Fold change of gene expression, MMP2: −6.5
- Net effect of the NBC on fold change, MMP2: 3.5
- Fold change of gene expression, NOS2: −0.5
- Net effect of the NBC on fold change, NOS2: −0.3
- Fold change of gene expression, PTGS-2: −3.0
- Net effect of the NBC on fold change, PTGS-2: −1.8
- Fold change of gene expression, SPARC: −4.0
- Net effect of the NBC on fold change, SPARC: 2.3
- Fold change of gene expression, STMN1: −5.0
- Net effect of the NBC on fold change, STMN1: 1.2
- Fold change of gene expression, TIMP1: −5.0
- Net effect of the NBC on fold change, TIMP1: 1.2
- Fold change of gene expression, TIMP2: −2.0
- Net effect of the NBC on fold change, TIMP2: 0.0
- Fold change of gene expression, TNF-a: −14.5
- Net effect of the NBC on fold change, TNF-a: −4.5
- Fold change of gene expression, TUBA: −2.0
- Net effect of the NBC on fold change, TUBA: 2.7
- Fold change of gene expression, TUBB: −5.0
- Net effect of the NBC on fold change, TUBB: −0.2

Source: patent US20100151062A1, “Determining nutrients for animals through gene expression” (priority 2008, published 2010)
